Measurements reported in patent publication US20100016307A1, “NOVEL COMPOUNDS” (priority 2006, published 2010).

How the values were obtained:
[1] = molecular target: T1, c-Met/cFms chimeric receptor in c-Met/cFms/NIH3T3 cells (Homo sapiens, UniProt P08581); experiment: Cell-based assay for c-Met autophosphorylation (ELISA); settings: compounds 1 h at 37° C., M-CSF (600 ng/ml) stimulation 10 min
T1 construct: The transmembrane/cytoplasmic domain fragment of c-Met (nucleotides 933 to 1390); expressed in transfected cells; the other entry of the earlier key: CSF1R (P07333, Macrophage colony-stimulating factor 1 receptor)
Excerpt: To generate a chimeric cDNA clone of c-Met with cFms, the extracellular domain of colony stimulating factor 1 receptor (CSF1R encoded by cFms gene) was fused with the transmembrane and cytoplasmic domain of c-Met. Reverse-transcribed RNA from human placenta was used as template to clone c-Met. The transmembrane/cytoplasmic domain fragment of c-Met (nucleotides 933 to 1390) containing a NotI site at both 5′- and 3′-end was generated by polymerase chain reaction (PCR) using following two oligonucleotides;
The resulting c-Met cDNA was cloned into pCR2.1-TOPO vector (c-Met/pCR2.1-TOPO). The extracellular domain fragment of cFms (nucleotides 1 to 512) containing BamHI site at 5′-end and NotI site at 3′-end was generated from human placenta cDNA by PCR using two oligonucleotides;
The resulting cFms cDNA was cloned into pcDNA3.1 vector (Invitrogen) using the BamHI and NotI sites (cFms/pcDNA3.1). To generate complete chimeric construct, the c-Met fragment (transmembrane and cytoplasmic domain) was digested with NotI sites (in c-Met/pCR2.1-TOPO vector) and then subcloned into cFms/pcDNA3.1 vector by NotI site (c-Met/cFms/pcDNA3.1).
NIH3T3 cells were grown in DMEM supplemented with 10% fetal bovine serum. NIH3T3 cells were transfected with c-Met/cFms/pcDNA3.1 vector alone using the calcium phosphate method according to the manufacturer's instructions. Three days after transfection, cells were selected with G418 (0.4 mgml^−1) for 14 days and the expression of c-Met chimeric receptor in the G418-resistant colonies of NIH3T3 (c-Met/cFms/NIH3T3) cells was analyzed by immunoblot. Autophosphorylation of c-Met induced by the stimulation with M-SCF, the ligand for CSF1R, was analyzed by immunoprecipitation and immunoblot, and prominent stable transfectant was selected for c-Met autophosphorylation assay. […]
c-Met/cFms/NIH3T3 cells were plated at 1×10^5 cells/well in collagen-coated 96-well microtitre plates and grown 24 h under standard culture conditions, followed by serum starvation for 1 h. The cells were incubated with compounds for 1 h at 37° C. and followed by M-CSF (600 ngml^−1) stimulation for 10 min at 37° C. The media was removed and the cells were lysed with 120 ul/well of lysis buffer (20 mM Tris-HCl pH8.0, 137 mM NaCl, 2 mM EDTA, 10% glycerol, 1% Triton X-100, 1 mM Na3VO4 and Protease Inhibitor Cocktail (Complete mini EDTA-free, Roche)). Then 100 ul/well of lysate was transferred to the antibody-coated (50 ng/well goat anti-cFms antibody in PBS) ELISA plate and incubated overnight at 4° C. Plates were washed five times with PBST (PBS containing 0.05% Tween-20). Primary antibody (biotin-conjugated anti-phosphotyrosine monoclonal antibody, PIERCE) was diluted 1:10,000 in PBST containing 1% BSA, added (100 ul/well) and incubated for 2 h at room temperature. After washing the plates five times with washing buffer, 100 ul/well of HRP-conjugated streptavidin (PIERCE) in PBST containing 1% BSA was added and incubated for 30 min at room temperature. After washing five times with PBST, 100 ul/well of SuperSignal ELISA Femto Substrate (PIERCE) was added and incubated for almost 1 min at room temperature. Chemiluminescence was measured using Wallac 1420 multilabel counter.
The IC50 was determined by using XLfit software (IDBS) with four-parameters, sigmoidal dose-response equation.

[2] = molecular target: T2, human Met Kinase (His6-GST fusion, aa 956-1390) (Homo sapiens, UniProt P08581); experiment: In vitro screen: kinase assay of purified Met kinase; assay type: biochemical; settings: purified Met 1 nM, 10 μM ATP, 1 μM peptide substrate, 1 hour at room temperature; read-out: pIC50 values at the c-Met receptor (in vitro screen results) (converted)
T2 construct: His6 (N); GST (Glutathione-S-Transferase) (N); made in house; host or cells: baculovirus expression system in Sf9 cells
Protocol: The peptide substrate, Biotin-aminohexyl-EEEEYFELVAKKKK-amide was purchased from SynPep Solid sample is dissolved at approximately 2.5 mM in water (concentration determined by amino acid analysis) and aliquots stored at −20° C.
Met Kinase: A fusion protein consisting of His6-tagged Glutathione-S-Transferase (GST) and amino acid residues 956-1390 of human Met Kinase (aa 956-1390 of Entrez Protein Accession # EAL24359.1 (met proto-oncogene (hepatocyte growth factor receptor) [Homo sapiens])) from “www.ncbi.nlm.nih.gov/entrez/”) is purified from baculovirus expression system in Sf9 cells using Ni chelate column, GSH column, followed by size exclusion chromatography. Purity greater than 90%, estimated by SDS-PAGE, is achieved. Samples in 25 mM HEPES pH 7.5, 100 mM NaCl, 0.1 mM EDTA are stored at −80° C. until use.
Assays are performed in 96 well (Costar, Catalog No. 3789) or 384 well plates (Costar, Catalog No. 3705). Assay conditions for the peptide phosphorylation reaction (in 10, 20, 25, or 40 μl volume) mix are 100 mM Hepes buffer, pH 7.4; 0.1 mgml^−1 BSA; 5 mM MgCl2; 1 mM DTT; 10 μM ATP; purified Met (1 nM final); and 1 μM peptide substrate. Compounds, titrated in DMSO, are evaluated at concentrations ranging from 50 μM to 0.2 nM. […] Reactions are incubated for 1 hour at room temperature and are stopped by addition of detection reagents containing, at final detection volume, 12.5 mM EDTA; 100 mM Hepes; 0.1 mg/ml BSA; 8 nM Streptavidin APC (Perkin Elmer catalog #CR130-150); 1 nM Europium-labelled anti-phosphotyrosine antibody (Perkin Elmer catalog #AD0067). Under the assay conditions defined above, the Km (apparent) for ATP is determined to be 40 μM.
The data for compound dose responses were plotted as % Inhibition, calculated with the data reduction formula 100*(1−[(U1−C2)/(C1−C2)]), versus concentration of compound, where U is the unknown value, C1 is the average control value obtained for DMSO, and C2 is the average control value obtained for 0.05M EDTA. Data were fitted to the curve described by: y=((Vmax*x)/(K+x)) where Vmax is the upper asymptote and K is the IC50. The results for each compound were recorded as pIC50 calculated as follows: pIC50=−Log 10(K).

T2 sequence (P08581 956-1390): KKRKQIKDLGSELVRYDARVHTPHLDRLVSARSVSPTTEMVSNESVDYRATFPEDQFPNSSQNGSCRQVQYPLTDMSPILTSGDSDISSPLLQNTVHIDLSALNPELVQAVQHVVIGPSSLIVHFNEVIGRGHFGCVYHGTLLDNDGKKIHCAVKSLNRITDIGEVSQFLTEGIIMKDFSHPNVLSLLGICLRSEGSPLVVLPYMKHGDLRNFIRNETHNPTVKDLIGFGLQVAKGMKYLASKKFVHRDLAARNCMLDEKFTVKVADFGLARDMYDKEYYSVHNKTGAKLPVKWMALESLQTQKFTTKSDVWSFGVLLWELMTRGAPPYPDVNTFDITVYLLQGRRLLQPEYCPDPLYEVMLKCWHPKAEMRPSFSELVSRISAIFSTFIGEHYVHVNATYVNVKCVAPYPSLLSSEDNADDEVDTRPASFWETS
T1 sequence (P08581 with tags, fused parts or gaps): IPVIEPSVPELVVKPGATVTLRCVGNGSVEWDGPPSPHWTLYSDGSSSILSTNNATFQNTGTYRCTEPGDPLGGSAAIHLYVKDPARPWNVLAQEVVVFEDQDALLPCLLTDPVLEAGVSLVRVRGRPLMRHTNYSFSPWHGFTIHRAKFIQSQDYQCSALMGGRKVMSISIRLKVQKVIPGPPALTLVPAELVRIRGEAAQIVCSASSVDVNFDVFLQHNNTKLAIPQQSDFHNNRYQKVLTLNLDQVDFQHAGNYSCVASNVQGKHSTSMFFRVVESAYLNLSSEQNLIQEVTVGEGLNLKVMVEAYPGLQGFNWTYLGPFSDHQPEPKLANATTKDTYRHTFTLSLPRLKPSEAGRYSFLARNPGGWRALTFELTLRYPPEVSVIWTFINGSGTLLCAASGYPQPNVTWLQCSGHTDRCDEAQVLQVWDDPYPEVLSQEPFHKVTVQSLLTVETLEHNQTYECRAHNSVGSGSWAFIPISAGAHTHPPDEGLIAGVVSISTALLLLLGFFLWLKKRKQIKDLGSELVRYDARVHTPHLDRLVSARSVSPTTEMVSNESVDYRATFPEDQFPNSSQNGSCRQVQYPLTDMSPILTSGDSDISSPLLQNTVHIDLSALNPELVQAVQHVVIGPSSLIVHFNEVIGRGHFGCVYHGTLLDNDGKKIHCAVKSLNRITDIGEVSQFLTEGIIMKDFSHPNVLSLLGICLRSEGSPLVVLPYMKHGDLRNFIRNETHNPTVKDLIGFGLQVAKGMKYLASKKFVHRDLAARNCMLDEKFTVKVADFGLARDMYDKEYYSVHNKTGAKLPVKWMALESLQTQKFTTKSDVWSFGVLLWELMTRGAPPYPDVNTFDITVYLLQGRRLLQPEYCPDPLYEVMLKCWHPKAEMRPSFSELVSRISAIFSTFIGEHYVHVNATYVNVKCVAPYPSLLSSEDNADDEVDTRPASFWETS

IC50 [1] | IC50 [2] | SMILES
1000 to 3160 nM | < 10 nM | CN(C)Cc1cccc(NC(=O)c2cc3c(Oc4ccc(NC(=O)C5(C(=O)Nc6ccc(F)cc6)CC5)cc4)ccnc3[nH]2)c1 [Example 14, N^1-[4-({2-[({3-[(Dimethylamino)methyl]phenyl}amino)carbonyl]-1H-pyrrolo[2,3-b]pyridin-4-yl}oxy)phenyl]-N^1-(4-fluorophenyl)-1,1-cyclopropane dicarboxamide]
3160 to 31600 nM | 100 to 1000 nM | O=C(Nc1ccccc1)C1(C(=O)Nc2ccc(Nc3ccnc4[nH]ccc34)cc2)CC1 [Example 16, N^1-Phenyl-N^1-[4-(1H-pyrrolo[2,3-b]pyridin-4-ylamino)phenyl]-1,1-cyclopropanedicarboxamide]
